# Measured values published in US12583859B2, “PRMT5 inhibitors and uses thereof” (California Institute of Technology, priority 2019, dated 2026).
# Experiments:
# [1] = Caco-2 Assay (Papp A to B); type: in vitro ADME; details: human, pH 7.4
# Procedure: The degree of bi-directional human intestinal permeability for compounds was estimated using a Caco-2 cell permeability assay. Caco-2 cells were seeded onto polyethylene membranes in 96-well plates. The growth medium was refreshed every 4 to 5 days until cells formed a confluent cell monolayer. HBSS with 10 mM HEPES at pH 7.4 was used as the transport buffer. Compounds were tested at 2 μM bi-directionally in duplicate. Digoxin, nadolol and metoprolol were included as standards. Digoxin was tested at 10 μM bi-directionally in duplicate, while nadolol and metoprolol were tested at 2 μM in the A to B direction in duplicate. The final DMSO concentration was adjusted to less than 1% for all experiments. The plate was incubated for 2 hours in a CO2 incubator at 37° C., with 5% CO2 at saturated humidity. After incubation, all wells were mixed with acetonitrile containing an internal standard, and the plate was centrifuged at 4,000 rpm for 10 minutes. 100 μL supernatant was collected from each well and diluted with 100 μL distilled water for LC/MS/MS analysis. Concentrations of test and control compounds in starting solution, donor solution, and receiver solution were quantified by LC/MS/MS, using peak area ratio of analyte/internal standard.
# The apparent permeability coefficient Papp (cm/s) was calculated using the equation: Papp=(dCr/dt)×Vr/(A×C0), where dCr/dt is the cumulative concentration of compound in the receiver chamber as a function of time (μM/s); Vr is the solution volume in the receiver chamber (0.075 mL on the apical side, 0.25 mL on the basolateral side); A is the surface area for the transport, which is 0.0804 cm^2 for the area of the monolayer; and Co is the initial concentration in the donor chamber (μM). “A” represents a score of 1 or greater, “B” represents a score of 0.2 to 0.99, and “C” represents a score of less than 0.2.
# The efflux ratio was calculated using the equation: Efflux Ratio=Papp(BA)/Papp(AB)
# Percent recovery was calculated using the equation: % Recovery=100×[(Vr×Cr)+(Vd×Cd)]/(Vd×C0), where Vd is the volume in the donor chambers, which are 0.075 mL on the apical side and 0.25 mL on the basolateral side; and Cd and Cr are the final concentrations of transport compound in donor and receiver chambers, respectively. Measurement of Compound Metabolic Stability
# [2] = tested on: drug-resistant cell lines of Table 4; test: Cell Line Growth Retardation Assay, average maximum effect in resistant cohort; type: cell-based, Human; details: average maximum growth inhibition over resistant cohort of Table 4; 6 days; up to 1 μM
# Procedure: (§1) Cells were seeded at densities of 1,000-5,000 cells per well in 48-well tissue culture plates. After a 24 h rest period, cells were treated with compound at 1 μM, 0.2 μM, 0.04 μM, 0.008 μM, 0.0016 μM, and 0.00032 μM. A group of cells were treated with the vehicle in which the compound was prepared and served as a control. Prior to treatment, cells were counted and this count was used as a baseline for the calculation of growth inhibition. The cells were grown in the presence of compounds for 6 days and were counted on day 6. All cell counting was performed using a Synentec Cellavista plate imager. Growth inhibition was calculated as a ratio of cell population doublings in the presence of compound versus the absence of compound and expressed as the maximum percentage growth inhibition achieved across the range of tested concentrations of the compound (“maximum effect” or “ME”) calculated by fitting curves to data points from each dose-response assay using the Proc NLIN function in SAS for Windows version 9.2 (SAS Institute, Inc.).
# (§2) Human cancer cell lines were grouped as “sensitive” or “resistant” to PRMT5 inhibition based on whether their growth was retarded by JNJ-64619178 (i.e., (1S,2R,3R,5R)-3-(2-(2-amino-3-bromoquinolin-7-yl)ethyl)-5-(4-amino-7H-pyrrolo[2,3-d]pyrimidin-7-yl)cyclopentane-1,2-diol) (data not shown; see Table 4). These sensitive and resistant cohorts were interrogated for response to each compound, and ME was calculated for each cell line using the same technique described above. Average MEs for the sensitive and resistant cohorts were calculated as arithmetic means of the group. “A” represents a percent of maximum effect of 60% or greater, “B” represents a percent of maximum effect of 30% to 59%, and “C” represents a percent of maximum effect of 29% or lower.
# [3] = tested on: drug-sensitive cell lines of Table 4; test: Cell Line Growth Retardation Assay, average maximum effect in sensitive cohort; type: cell-based, Human; details: average maximum growth inhibition over sensitive cohort of Table 4; 6 days; up to 1 μM
# Procedure: as §1, §2
# [4] = Measurement of Compound Metabolic Stability in hepatocytes; type: in vitro ADME; details: mouse hepatocytes; for hepatocyte CLint at 1 μM: read-out: CLint (μL/min/10^6)
# Procedure: The metabolic stability of compounds was determined in hepatocytes from human, mice and rats. Compounds were diluted to 5 μM in Williams' Medium E from 10 mM stock solutions. 10 μL of each compound was aliquoted into a well of a 96-well plate and reactions were started by aliquoting 40 μL of a 625,000 cells/mL suspension into each well. The plate was incubated at 37° C. with 5% CO2. At each corresponding time point, the reaction was stopped by quenching with ACN containing internal standards (IS) at a 1:3. Plates were shaken at 500 rpm for 10 min, and then centrifuged at 3,220×g for 20 minutes. Supernatants were transferred to another 96-well plate containing a dilution solution. Supernatants were analyzed by LC/MS/MS. The Half-lives (in minutes) and CLint values (in μL/min/10^6 cells) of example compounds, as measured in mouse hepatocytes, are presented in Table 3. […] For CLint, “A” represents greater than 100 μL/min/10^6 cells, “B” represents 50 to 100 μL/min/10^6 cells, and “C” represents less than 50 μL/min/10^6 cells.
# The remaining percent of compound after incubation was calculated using the following equation: % Remaining Compound=Peak Area Ratios of Tested Compound vs. Internal Standard at End Point • Peak Area Ratios of Tested Compound vs. Internal Standard at Start Point Compound half-life and CLint were calculated using the following equations: Ct=C0*e^−k*t(first order kinetics); when […], t1/2=ln 2/k=0.693/k; and CLint=k/(1,000,000 cells/mL) Activity-Guided Selection of Inhibitors
# [5] = Water solubility of mesylate salt; type: physicochemical; details: in water
# Procedure: The freebase of Compound 15 was suspended in water, and methansulfonic acid was added (32 mg in 2 mL water). The resulting solution was gently heated and sonicated until a homogenous solution resulted, which was frozen and concentrated to dryness on the lyophilzer. The oily solid that resulted was re-dissolved in water, frozen and concentrated in the same manner to give a water soluble white solid (˜3 mg/mL). Further experiments were more easily conducted with this salt (32.0 mg, 91% yield over 2 steps).
# PRMT5 = biological target: T1, PRMT5 (Homo sapiens, UniProt O14744); test: PRMT5 Enzymatic Inhibition Assay (chemiluminescence immunoassay of histone H4 methylation); type: biochemical; details: 1 hour at room temperature; 10 μM to 1 nM
# T1 construct: purchased BPS Biosciences 52002L
# Procedure: A chemiluminescence immunoassay (CLIA) measuring the amount of PRMT5-mediated histone methylation was performed in a 96-well plate format according to the manufacturer's protocol (BPS Biosciences, Cat #52002L). A 96-well plate precoated with histone H4 peptide was rehydrated prior to use. A master mix containing PRMT5 substrate S-adenosylmethionine, reaction buffer, and purified PRMT5 enzyme was added to create reaction-competent wells. Wells lacking either S-adenosylmethionine substrate or PRMT5 enzyme were created as negative controls. 10 test concentrations, ranging from 100 μM to 10 nM, of the test compound were prepared using a 1:3 serial dilution in dH2O. 5 μL of each test concentration was added into a reaction-competent well. 5 μL of a 1% DMSO aqueous solution lacking inhibitor was added into negative control wells and into a reaction-competent well, creating a positive control well. The final reaction volume in each well was 50 μL, and the final concentration of the test compound in each well ranged from 10 μM to 1 nM. A known inhibitor of PRMT5, EPZ015666, was tested in parallel reaction wells as an assay validation control. The 96-well plate was incubated for 1 hour at room temperature.
# Upon completion of the incubation, the reaction supernatant in each well was discarded. Wells were washed with 1×TBST and incubated in blocking buffer for 1 hour. The wells were incubated with a primary antibody recognizing methylated Arg3 residues on Histone H4 for 1 hour. The wells were washed with 1×TBST again and subsequently incubated with an HRP-conjugated secondary antibody for 30 minutes. The wells were washed again with 1×TBST, and equal parts of the chemiluminescence reagents were added into each well. Quantification of luminescence was measured in a plate reader.
# Luminescence values were normalized against the positive and negative controls to convert the data into % PRMT5 activity. An inhibitor concentration-dependent curve was plotted against % PRMT5 activity and am IC50 value was determined for each compound.
# T1 sequence (O14744 2-637 limits assumed): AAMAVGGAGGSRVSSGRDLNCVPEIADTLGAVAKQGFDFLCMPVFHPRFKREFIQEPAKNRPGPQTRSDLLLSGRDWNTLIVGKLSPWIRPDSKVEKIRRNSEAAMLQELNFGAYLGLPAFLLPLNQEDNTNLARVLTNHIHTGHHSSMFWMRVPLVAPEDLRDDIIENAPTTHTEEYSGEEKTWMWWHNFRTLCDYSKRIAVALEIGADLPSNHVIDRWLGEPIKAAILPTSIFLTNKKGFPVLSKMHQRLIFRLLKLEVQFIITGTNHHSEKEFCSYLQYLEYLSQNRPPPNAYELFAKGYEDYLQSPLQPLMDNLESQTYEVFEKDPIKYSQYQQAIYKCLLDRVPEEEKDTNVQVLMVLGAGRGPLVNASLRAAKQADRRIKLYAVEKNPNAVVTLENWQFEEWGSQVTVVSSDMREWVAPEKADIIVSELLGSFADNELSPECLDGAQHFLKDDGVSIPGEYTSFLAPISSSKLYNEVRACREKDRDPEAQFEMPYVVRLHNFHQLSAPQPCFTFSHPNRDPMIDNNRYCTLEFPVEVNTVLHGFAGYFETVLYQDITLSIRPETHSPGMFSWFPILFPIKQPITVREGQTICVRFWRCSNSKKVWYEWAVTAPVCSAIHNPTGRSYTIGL
# T1 sequence (Q9BQA1 2-342 partner limits assumed): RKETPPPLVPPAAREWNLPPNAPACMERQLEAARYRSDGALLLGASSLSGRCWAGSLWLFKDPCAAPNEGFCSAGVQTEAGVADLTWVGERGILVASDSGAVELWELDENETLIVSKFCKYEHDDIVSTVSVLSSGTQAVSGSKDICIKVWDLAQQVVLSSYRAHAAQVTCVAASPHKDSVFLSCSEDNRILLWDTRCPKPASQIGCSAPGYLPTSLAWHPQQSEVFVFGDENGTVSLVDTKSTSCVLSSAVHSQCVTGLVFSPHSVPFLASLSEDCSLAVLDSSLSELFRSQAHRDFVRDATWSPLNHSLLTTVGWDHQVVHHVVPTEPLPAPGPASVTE
SMILES,"Papp A→B at 2 h, 2 μM [1] [×10⁻⁶ cm/s]",half-life at 1 μM [4] [min],hepatocyte CLint at 1 μM [4] [µL/min/1e6 cells],solubility [5] [µg/mL],IC50 (PRMT5) [nM],AvgRes ME (%) [2],AvgSens ME (%) [3]
"Nc1nc2cc(C3C[C@@]4(CO3)C[C@@H](n3ccc5c(N)ncnc53)[C@H](O)[C@@H]4O)ccc2cc1Br (single isomer, unassigned) [Compound 15]",< 0.2,> 50,< 50,~3000,≤ 100,B (a percent of maximum effect of 30% to 59%),A (a percent of maximum effect of 60% or greater)
Nc1nc2cc(C3C[C@@]4(CO3)C[C@@H](n3ccc5c(Cl)ncnc53)[C@H](O)[C@@H]4O)ccc2cc1Br (stereo partly drawn) [Compound 17],0.2 to 0.99,15 to 50,50 to 100,–,≤ 100,B (a percent of maximum effect of 30% to 59%),A (a percent of maximum effect of 60% or greater)
Nc1nc2cc([C@H]3C[C@@]4(CO3)C[C@@H](n3ccc5cncnc53)[C@H](O)[C@@H]4O)ccc2cc1Br [Compound 22],≥ 1,< 15,> 100,–,≤ 100,B (a percent of maximum effect of 30% to 59%),A (a percent of maximum effect of 60% or greater)
CNc1ncnc2c1ccn2[C@@H]1C[C@@]2(CO[C@@H](c3ccc4cc(Br)c(N)nc4c3)C2)[C@@H](O)[C@H]1O [Compound 23],0.2 to 0.99,> 50,< 50,–,≤ 100,B (a percent of maximum effect of 30% to 59%),A (a percent of maximum effect of 60% or greater)

# Second part, led by results:
"Papp A→B at 2 h, 2 μM [1] [×10⁻⁶ cm/s]",half-life at 1 μM [4] [min],hepatocyte CLint at 1 μM [4] [µL/min/1e6 cells],solubility [5] [µg/mL],IC50 (PRMT5) [nM],SMILES,AvgRes ME (%) [2],AvgSens ME (%) [3]
≥ 1,15 to 50,50 to 100,–,≤ 100,CCNc1ncnc2c1ccn2[C@@H]1C[C@@]2(CO[C@@H](c3ccc4cc(Br)c(N)nc4c3)C2)[C@@H](O)[C@H]1O [Compound 24],B (a percent of maximum effect of 30% to 59%),A (a percent of maximum effect of 60% or greater)
< 0.2,–,–,–,≤ 100,"Nc1nc2cc(C3C[C@@]4(CN3)C[C@@H](n3ccc5c(Cl)ncnc53)[C@H](O)[C@@H]4O)ccc2cc1Br (single isomer, unassigned) [Compound 9]",C (a percent of maximum effect of 29% or lower),B (a percent of maximum effect of 30% to 59%)
≥ 1,> 50,< 50,–,≤ 100,Cc1ncnc2c1ccn2[C@@H]1C[C@@]2(CO[C@@H](c3ccc4cc(Br)c(N)nc4c3)C2)[C@@H](O)[C@H]1O [Compound 19],B (a percent of maximum effect of 30% to 59%),A (a percent of maximum effect of 60% or greater)
< 0.2,–,–,–,101 to 500,"Nc1nc2cc(C3C[C@@]4(CN3)C[C@@H](n3ccc5c(N)ncnc53)[C@H](O)[C@@H]4O)ccc2cc1Br (single isomer, unassigned) [Compound 8]",C (a percent of maximum effect of 29% or lower),C (a percent of maximum effect of 29% or lower)
